Values of other authors, collected in patent US20200163955A1, “STERILE COMPOSITIONS OF INDACATEROL SUITABLE FOR NEBULIZATION” (GLENMARK SPECIALTY S.A., priority 2018, published 2020).

Conditions: water

- aqueous solubility: very slightly soluble in water
SMILES: CCc1cc2c(cc1CC)CC(NC[C@H](O)c1ccc(O)c3[nH]c(=O)ccc13)C2 [Indacaterol, 5-[(1R)-2-[(5,6-diethyl-2,3-dihydro-1H-inden-2-yl)amino]-1-hydroxyethyl]-8-hydroxy-1H-quinolin-2-one]
